Experimental data from ChEMBL document CHEMBL1629630, “Inhibition of inositol phosphorylceramide synthase by the cyclic peptide aureobasidin A” (Antimicrob Agents Chemother, 2009).
“And” between values parts separate entries of the source, which are not always exact repeats. Equal values may be shown once. The source made the active and inactive calls. No cut-off for these calls is given here. Numbered stars: 1 amine (or outer) side, 2 acyl side, 3 side chain; on linkers, the order of the positions; unused ones are H or OH. Square brackets hold non-standard residues; d marks the D form. Peptide text beside a SMILES is read from it. X1 = CC[C@@H](C)[C@@H](O[*:1])C(=O)[*:2]; NMeVal(β-OH) = CN[C@H](C(=O)O)C(C)(C)O; NMeF = CN[C@@H](Cc1ccccc1)C(=O)O; aIle = CC[C@@H](C)[C@H](N)C(=O)O; NMeV = CN[C@H](C(=O)O)C(C)C

Key:
[1] = target: T1, Inositol phosphorylceramide synthase (Candida albicans (strain SC5314 / ATCC MYA-2876) (Yeast), UniProt O13332)
T1 sequence (O13332 whole entry): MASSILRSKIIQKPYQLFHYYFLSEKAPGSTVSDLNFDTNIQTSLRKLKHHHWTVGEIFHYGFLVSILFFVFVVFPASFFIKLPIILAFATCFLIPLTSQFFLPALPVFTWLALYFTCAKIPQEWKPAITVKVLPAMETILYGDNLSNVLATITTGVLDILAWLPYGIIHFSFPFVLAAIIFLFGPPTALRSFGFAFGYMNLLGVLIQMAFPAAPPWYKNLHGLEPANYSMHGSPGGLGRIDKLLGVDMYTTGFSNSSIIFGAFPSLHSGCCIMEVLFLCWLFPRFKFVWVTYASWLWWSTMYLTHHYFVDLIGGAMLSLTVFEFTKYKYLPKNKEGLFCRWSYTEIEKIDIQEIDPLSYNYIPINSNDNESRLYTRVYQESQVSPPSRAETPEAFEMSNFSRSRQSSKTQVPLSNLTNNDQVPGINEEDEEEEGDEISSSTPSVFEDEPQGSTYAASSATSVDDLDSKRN
Description: (§1) Inhibition of Candida albicans ATCC 38247 inositol phosphorylceramide synthase preincubated for 30 mins

[2] = target: T2, Aureobasidin-resistance protein (Neosartorya fumigata (Aspergillus fumigatus), UniProt Q9Y745); test: Inhibition of Aspergillus fumigatus inositol phosphorylceramide synthase
T2 sequence (Q9Y745 whole entry): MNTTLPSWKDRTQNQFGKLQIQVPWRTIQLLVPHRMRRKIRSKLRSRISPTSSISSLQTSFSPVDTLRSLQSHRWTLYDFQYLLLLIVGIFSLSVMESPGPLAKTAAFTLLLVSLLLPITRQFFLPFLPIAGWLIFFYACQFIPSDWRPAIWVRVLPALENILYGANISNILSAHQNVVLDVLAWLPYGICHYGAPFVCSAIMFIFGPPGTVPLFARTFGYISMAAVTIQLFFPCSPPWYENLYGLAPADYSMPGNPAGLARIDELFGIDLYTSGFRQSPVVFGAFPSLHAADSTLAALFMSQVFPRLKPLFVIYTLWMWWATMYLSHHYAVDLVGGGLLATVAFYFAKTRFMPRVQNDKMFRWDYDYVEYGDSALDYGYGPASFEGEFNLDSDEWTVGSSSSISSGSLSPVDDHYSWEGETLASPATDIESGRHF

[3] = target: Inositol phosphorylceramide synthase catalytic subunit AUR1 (Saccharomyces cerevisiae S288c, UniProt P36107); test: Inhibition of aureobasidin A-resistant Saccharomyces cerevisiae inositol phosphorylceramide synthase preincubated for 30 mins
[4] = target: T3, Inositol phosphorylceramide synthase (Candida albicans (strain SC5314 / ATCC MYA-2876) (Yeast)) (UniProt O13332); test: Inhibition of Candida albicans ATCC 38247 inositol phosphorylceramide synthase; settings: TDE = time-dependent effect
T3 sequence (whole entry): T1 sequence (O13332 whole entry)

[5] = target: T3, Inositol phosphorylceramide synthase (Candida albicans (strain SC5314 / ATCC MYA-2876) (Yeast)); settings: ATCC 38247
Description: as §1

[6] = target: T4, Inositol phosphorylceramide synthase catalytic subunit AUR1 (Saccharomyces cerevisiae S288c, UniProt P36107); test: Inhibition of Saccharomyces cerevisiae SJ21R inositol phosphorylceramide synthase preincubated for 30 mins
T4 sequence (P36107 whole entry): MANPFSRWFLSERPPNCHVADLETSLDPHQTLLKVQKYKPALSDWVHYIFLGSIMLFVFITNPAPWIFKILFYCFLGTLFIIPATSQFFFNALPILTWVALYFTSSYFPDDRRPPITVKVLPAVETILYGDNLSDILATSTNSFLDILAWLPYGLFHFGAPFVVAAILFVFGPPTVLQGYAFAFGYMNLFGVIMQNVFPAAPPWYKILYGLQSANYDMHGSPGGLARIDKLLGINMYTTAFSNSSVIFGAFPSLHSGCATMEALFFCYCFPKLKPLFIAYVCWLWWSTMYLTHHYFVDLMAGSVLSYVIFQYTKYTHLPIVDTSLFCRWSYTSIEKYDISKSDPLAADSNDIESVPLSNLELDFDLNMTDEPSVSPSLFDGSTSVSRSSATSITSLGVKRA

[7] = target: T1, Inositol phosphorylceramide synthase; test: Inhibition of Candida albicans inositol phosphorylceramide synthase
[8] = target: T4, Inositol phosphorylceramide synthase catalytic subunit AUR1; test: Inhibition of Saccharomyces cerevisiae inositol phosphorylceramide synthase
[9] = target: T3, Inositol phosphorylceramide synthase (Candida albicans (strain SC5314 / ATCC MYA-2876) (Yeast)); test: Irreversible inhibition of Candida albicans ATCC 38247 inositol phosphorylceramide synthase
[10] = target: T1, Inositol phosphorylceramide synthase; test: Reversible inhibition of Candida albicans inositol phosphorylceramide synthase
[11] = target: T4, Inositol phosphorylceramide synthase catalytic subunit AUR1; test: Reversible inhibition of Saccharomyces cerevisiae inositol phosphorylceramide synthase

| SMILES | Ki [1] | inhibition [4] | IC50 [7] | IC50 [3] | IC50 [6] | further results |
| --- | --- | --- | --- | --- | --- | --- |
| CCCCCCCCC(=O)N(C)C(C(=O)O[C@@H](C(=O)N(C)CCc1ccc(OC)c(OC)c1)c1ccccc1)C(C)(C)O (stereo partly drawn) | 11800 nM | – | – | – | – | – |
| COc1ccc(CCN(C)C(=O)[C@H](OC(=O)C(N(C)C(=O)CCCCCc2ccccc2)C(C)(C)O)c2ccccc2)cc1OC (stereo partly drawn) | 10500 nM | – | – | – | – | – |
| CCCC(CCC)C(=O)N(C)C(C(=O)O[C@@H](C(=O)N(C)CCc1ccc(OC)c(OC)c1)c1ccccc1)C(C)(C)O (stereo partly drawn) | 7900 nM | – | – | – | – | – |
| CC[C@@H](C)[C@@H]1NC(=O)[C@@H]2CCCN2C(=O)[C@H](Cc2ccccc2)N(C)C(=O)[C@H](Cc2ccccc2)NC(=O)[C@H](C(C)C)N(C)C(=O)[C@@H]([C@H](C)CC)OC(=O)[C@H](C(C)(C)O)N(C)C(=O)[C@H](CC(C)C)NC(=O)[C@H](C(C)C)N(C)C1=O [AUREOBASIDIN A] (cyclo(F[NMeF]P[aIle][NMeV]L[NMeVal(β-OH)][X1][NMeV])) | 0.18 nM | tde | 0.2 nM | – | – | IC50 [2]: 0.2 nM; Ki [3]: 1400 nM; Kinact [5]: 2.5 /us and 1.8 /us; Ki [6]: 0.23 nM; Ki [7]: 0.55 nM; IC50 [8]: 0.2 nM; inhibition [9]: Active |
| CCCCCCCCCC[C@H](C)[C@@H](O)[C@@H](C)/C=C(C)/C=C(\C)C(=O)[C@H](C)/C=C(\C)C(=O)O[C@H](CO)[C@@H](O)[C@H](O)C(=O)O [KHAFREFUNGIN] | 0.43 nM | tde | 0.6 nM | 11300 nM | 43 nM | – |
| C=C1/C=C(\C)[C@H](CC)CC(=O)[C@H](C)C(=O)[C@@](O)(CO)C/C(OC)=C/[C@@H](C)C1 [RUSTMICIN] | 16 nM | – | – | 27200 nM | 13 nM | IC50 [10]: 3.8 nM; IC50 [11]: 3.8 nM |
